Patent US20240409542A1, “NOVEL COMPOUNDS” (Sitryx Therapeutics Limited, priority 2021, published 2024)
Converted amounts (≈) assume the structure as drawn. Marks after values point to notes of the source that are not given here.

Tests used:
recombinant human PKM2 = recombinant human PKM2 (Homo sapiens (Human), UniProt P14618); assay: Human PKM2 activation assay (Kinase-Glo Plus luminescence); type: biochemical; details: for EC50: activation of recombinant human PKM2, 4-parameter logistic fit, read-out: hPKM2 EC50; for Emax: read-out: hPKM2 Emax (%)
Procedure: Compound activation of recombinant human PKM2 pyruvate kinase activity was determined by biochemical assay. N-terminal His-tagged hPKM2 was sourced from R&D Systems and its substrates phosphoenolpyruvate (PEP) and ADP from Sigma-Aldrich and 2BScientific Ltd, respectively. The Kinase-Glo® Plus luminescence assay was from Promega. All other reagents were from Sigma-Aldrich. Test Compounds were prepared as 10 mM DMSO stocks and dilution series prepared in DMSO for direct dilution into Assay Buffer comprising 50 mM imidazole, 50 mM KCl, 7 mM MgCl2, 0.01% Tween20, 0.05% BSA (pH 7.2).
Human PKM2 was diluted into Assay Buffer comprising 50 mM imidazole, 50 mM KCl, 7 mM MgCl2, 0.01% Tween20, 0.05% BSA (pH 7.2) to a final concentration of 5 pM. Enzyme-Assay Buffer mix was dispensed into a 384-well shallow-well white-walled plate (PerkinElmer) and Test Compounds added by acoustic dispense (Echo®, Labcyte Inc.).
After 60 minutes' incubation on an orbital shaker (300 rpm, 26° C.), enzyme activity was quantified by the luminescent detection of generated ATP. Kinase-Glo® Plus reagent was added to each well and the plates incubated for a further 15 minutes on an orbital shaker in the dark (300 rpm, 26° C.) before luminescence measurement on a plate reader (PHERAstar® FSX, BMG Labtech).
EC50 and Emax values were determined from 4-parameter logistic fits of compound concentration-response curves.

A549 cells = assay: A549 proliferation assay in low-serine medium (CellTiter-Glo); type: cell-based; details: Homo sapiens, 72 h, 3 days, low-serine medium (20 μM L-serine)
Procedure: The effect of compounds of Formula (I) on A549 cell proliferation in low-serine medium was assessed using a luminescence assay of viable cell number (CellTiter-Glo® 2.0, Promega) duplexed with a fluorescent cytotoxicity assessment (CellTox™ Green, Promega). Cell culture reagents were from ThermoFisher unless specified otherwise. Assay reagents were from Sigma-Aldrich unless specified otherwise. Test Compounds were prepared as 10 mM DMSO stocks and dilution series prepared in DMSO for direct dilution into culture medium.
Cells were passaged every 3-4 days at 80-90% confluence. The cell monolayer was washed twice with room-temperature Ca^2+/Mg-free PBS and 4 ml room-temperature trypsin-EDTA added to the flask. After 5 minutes' incubation (37° C., 5% CO2) to detach cells, trypsin was quenched with 13 ml warmed complete growth medium and the cells harvested and diluted to 2.4×10^4 cells/ml for dispensing into 384-well clear-bottom black-walled plates (600 cells/well).
Following overnight incubation, growth medium was aspirated from each well and the cells washed twice with Assay Medium comprising Basal Medium Eagle supplemented with 3% heat-inactivated dialysed FBS plus 2 mM L-glutamine plus 20 μM L-serine (Sigma-Aldrich). After aspiration of the final wash medium, Assay Medium containing Test Compound was added to each well. DMSO vehicle controls were included on each plate.
Cells were incubated for 3 days in a humidified incubator (37° C., 5% CO2) at which point CellTox™ Green and CellTiter-Glo® reagents were prepared according to the manufacturer's instructions. Triton-X was added to HIGH wells for cytotoxicity determination and the plate incubated for 30 minutes (20° C., ambient humidity and pCO2). CellTox™ Green reagent was added to each well and the plate covered, placed on an orbital shaker @450 rpm for 2 minutes, and incubated in the dark for 15 minutes (20° C., ambient humidity and pCO2). Endpoint fluorescence was measured using a plate reader (PHERAstar® FSX, BMG Labtech).
Following cytotoxicity determination, CellTiter-Glo® reagent was added to each well and the plate placed on an orbital shaker @450 rpm for 2 minutes to lyse cells. Plates were incubated in the dark for 15-30 minutes (20° C., ambient humidity and pCO2) prior to endpoint luminescence measurement (PHERAstar® FSX, BMG Labtech).
Proliferation was calculated by normalizing luminescence signals to LOW controls obtained from a parallel plate processed at the time of Test Compound challenge and HIGH (DMSO vehicle) wells from the compound plate. IC50 values were determined from a 4-parameter logistic fit of compound concentration-response curves.

recombinant human PKLR = recombinant human PKLR (Homo sapiens (Human), UniProt P30613); assay: Human PKLR activation assay (Kinase-Glo Plus luminescence); details: for Emax: read-out: hPKLR Emax (%)
Procedure: Compound activation of recombinant human PKLR pyruvate kinase activity was determined by biochemical assay. N-terminal His-tagged enzyme was sourced from R&D Systems and its substrates phosphoenolpyruvate (PEP) and ADP from Sigma-Aldrich and 2BScientific Ltd, respectively. The Kinase-Glo® Plus luminescence assay was from Promega. All other reagents were from Sigma-Aldrich. Test Compounds were prepared as 10 mM DMSO stocks and dilution series prepared in DMSO for direct dilution into Assay Buffer comprising 50 mM imidazole, 50 mM KCl, 7 mM MgCl2, 0.01% Tween20, 0.05% BSA (pH 7.2).
Human PKLR was diluted into Assay Buffer to a final concentration of 5 pM. Enzyme-Assay Buffer mix was dispensed into 384-well shallow-well white-walled plates and Test Compounds added by acoustic dispense (Echo®, Labcyte Inc).

[1] = Kinetic aqueous solubility; details: PBS pH 7.4, 200 μM (2% DMSO), RT; for solubility kinetic at 1.5 h: kinetic from dmso stock, Kinetic solubility (Ksol), (μg/ml)
Procedure: Phosphate buffered saline (PBS) pH 7.4 was prepared using PBS tablets as per the manufacturer's instructions. Compounds and marker stocks are prepared at 10 mM in DMSO.
Compounds were incubated at 200 μM (2% DMSO) in Millipore—MSS LB PC 10 or Porvair—ref: 36004 plates in the presence of the prepared PBS pH 7.4 solution for 1.5 h, at RT, with gentle shaking. […] The samples were then analysed in a 96 well UV Star analysis plate on a plate reader from 220 nm to 500 nm at 10 nm increments.
The concentration of the samples was calculated against the standard curves.

[2] = phosphate buffered saline (PBS) pH 7.4, pH 7.4, aqueous buffer

Chain of recombinant human PKLR (P30613 whole entry): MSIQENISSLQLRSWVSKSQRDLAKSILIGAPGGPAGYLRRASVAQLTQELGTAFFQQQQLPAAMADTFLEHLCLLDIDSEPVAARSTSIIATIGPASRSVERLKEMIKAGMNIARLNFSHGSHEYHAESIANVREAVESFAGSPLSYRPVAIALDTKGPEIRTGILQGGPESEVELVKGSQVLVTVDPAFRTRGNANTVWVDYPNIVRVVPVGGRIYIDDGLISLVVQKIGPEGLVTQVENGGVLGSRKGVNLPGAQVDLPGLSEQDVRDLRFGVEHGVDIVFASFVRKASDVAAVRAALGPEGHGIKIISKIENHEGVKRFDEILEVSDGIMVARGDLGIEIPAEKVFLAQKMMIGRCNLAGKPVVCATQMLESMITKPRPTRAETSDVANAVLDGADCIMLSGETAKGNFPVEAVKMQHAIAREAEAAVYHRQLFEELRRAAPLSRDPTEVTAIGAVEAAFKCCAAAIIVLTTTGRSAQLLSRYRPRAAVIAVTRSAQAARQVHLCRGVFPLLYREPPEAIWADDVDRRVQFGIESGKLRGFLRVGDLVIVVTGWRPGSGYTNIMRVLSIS
Chain of recombinant human PKM2 (P14618 whole entry): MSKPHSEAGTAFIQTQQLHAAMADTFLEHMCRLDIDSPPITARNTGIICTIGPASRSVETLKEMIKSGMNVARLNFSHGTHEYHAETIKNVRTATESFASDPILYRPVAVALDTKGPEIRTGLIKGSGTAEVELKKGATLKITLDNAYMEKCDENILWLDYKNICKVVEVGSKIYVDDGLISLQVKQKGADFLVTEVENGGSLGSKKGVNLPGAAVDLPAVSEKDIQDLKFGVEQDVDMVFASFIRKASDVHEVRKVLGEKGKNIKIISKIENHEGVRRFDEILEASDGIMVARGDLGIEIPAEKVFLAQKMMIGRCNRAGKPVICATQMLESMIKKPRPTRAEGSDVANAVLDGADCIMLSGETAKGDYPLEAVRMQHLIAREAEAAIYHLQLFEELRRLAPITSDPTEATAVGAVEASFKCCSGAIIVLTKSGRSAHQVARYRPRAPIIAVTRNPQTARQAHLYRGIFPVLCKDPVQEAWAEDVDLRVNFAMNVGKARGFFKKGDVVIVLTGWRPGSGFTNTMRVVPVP

Compound | EC50 (recombinant human PKM2) | Emax (recombinant human PKM2) | IC50 (A549 cells) | EC50 (recombinant human PKLR) | Emax (recombinant human PKLR) | solubility kinetic at 1.5 h [1, 2] | Kinetic solubility (Ksol); (μg/ml) ([1]; 1.5 h) | Kinetic solubility (Ksol); ([1]; 1.5 h) | solubility kinetic at 1.5 h ([1]; phosphate buffered saline, pH 7.4, aqueous buffer)
Cn1c2c(c3cnn(Cc4cccc(N)c4)c(=O)c31)CCN(S(C)(=O)=O)C2 [Example 7, 3-(3-aminobenzyl)-5-methyl-7-(methylsulfonyl)-3,5,6,7,8,9-hexahydro-4H-pyrido[4′,3′:4,5]pyrrolo[2,3-d]pyridazin-4-one] | 346 nM | 107% | 0.9 nM | 60 to 320 nM | 100 to 117% | 72.2 µg/mL (≈ 186 µM) |  |  | 
Cn1c2c(c3cnn(Cc4cccc(N)c4)c(=O)c31)CCN(S(=O)(=O)C1CC1)C2 [Example 9, 3-(3-aminobenzyl)-7-(cyclopropylsulfonyl)-5-methyl-3,5,6,7,8,9-hexahydro-4H-pyrido[4′,3′:4,5]pyrrolo[2,3-d]pyridazin-4-one] | 1770 nM | 47.3% | 25.8 nM | > 320 nM | < 90% | 43.1 µg/mL (≈ 104 µM) |  |  | 
CC(=O)N1CCc2c(n(C)c3c(=O)n(Cc4cccc(N)c4)ncc23)C1 [Example 8, 7-acetyl-3-(3-aminobenzyl)-5-methyl-3,5,6,7,8,9-hexahydro-4H-pyrido [4′,3′:4,5]pyrrolo[2,3-d]pyridazin-4-one] | 1740 nM | 83.1% | 25.4 nM | > 320 nM | < 90% | > 70.3 µg/mL |  |  | 
Cn1c2c(c3cnn(Cc4cccc(N)c4)c(=O)c31)CCN(S(=O)(=O)c1ccccc1)C2 [Example 11, 3-(3-aminobenzyl)-5-methyl-7-(phenylsulfonyl)-3,5,6,7,8,9-hexahydro-4H-pyrido[4′,3′:4,5]pyrrolo[2,3-d]pyridazin-4-one] | 846 nM | 88.4% | 14 nM | 60 to 320 nM | < 90% | 9.9 µg/mL (≈ 22 µM) |  |  | 
Cn1c2c(c3cnn(Cc4cc[nH]n4)c(=O)c31)CCN(S(=O)(=O)c1ccccc1)C2 [Example 12, 3-((1H-pyrazol-3-yl)methyl)-5-methyl-7-(phenylsulfonyl)-3,5,6,7,8,9-hexahydro-4H-pyrido[4′,3′:4,5]pyrrolo[2,3-d]pyridazin-4-one] | 1490 nM | 79.7% | 13.5 nM | 60 to 320 nM | 100 to 117% | 61.6 µg/mL (≈ 145 µM) |  |  | 
COc1cc(F)c(Cn2ncc3c4c(n(C)c3c2=O)CN(S(C)(=O)=O)CC4)c(F)c1 [Example 6, 3-(2,6-difluoro-4-methoxybenzyl)-5-methyl-7-(methylsulfonyl)-3,5,6,7,8,9-hexahydro-4H-pyrido[4′,3′:4,5]pyrrolo[2,3-d]pyridazin-4-one] | 317 nM | 85.3% | 16.8 nM | 43.5 to 60 nM | < 90% | 0.64 µg/mL (≈ 1.46 µM) | 0.87* μg/ml |  | 
Cn1c2c(c3cnn(Cc4c[nH]c5cnccc45)c(=O)c31)CCN(S(C)(=O)=O)C2 [Example 36, 3-((1H-pyrrolo[2,3-c]pyridin-3-yl)methyl)-5-methyl-7-(methylsulfonyl)-3,5,6,7,8,9-hexahydro-4H-pyrido[4′,3′:4,5]pyrrolo[2,3-d]pyridazin-4-one] | 71 nM | 100% |  | 43.5 to 60 nM | 90 to 100% | > 82.5 µg/mL |  |  | 
Cn1c2c(c3cnn(Cc4ccc5c(c4)CCO5)c(=O)c31)CCN(S(C)(=O)=O)C2 [Example 1, 3-((2,3-dihydrobenzofuran-5-yl)methyl)-5-methyl-7-(methylsulfonyl)-3,5,6,7,8,9-hexahydro-4H-pyrido[4′,3′:4,5]pyrrolo[2,3-d]pyridazin-4-one] | 180 nM | 86.9% | 1.6 nM | 60 to 320 nM | 90 to 100% | 13.9 µg/mL (≈ 33.5 µM) | 12.85* μg/ml |  | 
COc1cccc(Cn2ncc3c4c(n(C)c3c2=O)CN(S(C)(=O)=O)CC4)c1F [Example 5, 3-(2-fluoro-3-methoxybenzyl)-5-methyl-7-(methylsulfonyl)-3,5,6,7,8,9-hexahydro-4H-pyrido[4′,3′:4,5]pyrrolo[2,3-d]pyridazin-4-one] | 591 nM | 96.7% | 13.3 nM | 60 to 320 nM | < 90% | 5.13 µg/mL (≈ 12.2 µM) |  |  | 
COc1ccc(Cn2ncc3c4c(n(C)c3c2=O)CN(S(C)(=O)=O)CC4)cn1 [Example 2, 3-((6-methoxypyridin-3-yl)methyl)-5-methyl-7-(methylsulfonyl)-3,5,6,7,8,9-hexahydro-4H-pyrido[4′,3′:4,5]pyrrolo[2,3-d]pyridazin-4-one] | 306 nM | 93.7% | 4.5 nM | 60 to 320 nM | 100 to 117% | 36.1 µg/mL (≈ 89.5 µM) |  | 36.19 µg/mL | 
Cn1c2c(c3cnn(Cc4cc[nH]n4)c(=O)c31)CCN(S(C)(=O)=O)C2 [Example 4, 3-((1H-pyrazol-3-yl)methyl)-5-methyl-7-(methylsulfonyl)-3,5,6,7,8,9-hexahydro-4H-pyrido[4′,3′:4,5]pyrrolo[2,3-d]pyridazin-4-one] | 1140 nM | 89.8% |  | 60 to 320 nM | 100 to 117% | 42 µg/mL (≈ 116 µM) |  |  | 
Cn1c2c(c3cnn(Cc4c[nH]c5ncccc45)c(=O)c31)CCN(S(C)(=O)=O)C2 [Example 37, 3-((1H-pyrrolo[2,3-b]pyridin-3-yl)methyl)-5-methyl-7-(methylsulfonyl)-3,5,6,7,8,9-hexahydro-4H-pyrido[4′,3′:4,5]pyrrolo[2,3-d]pyridazin-4-one] | 207 nM | 106% |  |  |  | 59.3 µg/mL (≈ 144 µM) |  |  | 
Cc1ncc(S(=O)(=O)N2CCc3c(n(C)c4c(=O)n(Cc5cccc(N)c5)ncc34)C2)s1 [Example 10, 3-(3-aminobenzyl)-5-methyl-7-((2-methylthiazol-5-yl)sulfonyl)-3,5,6,7,8,9-hexahydro-4H-pyrido[4′,3′:4,5]pyrrolo[2,3-d]pyridazin-4-one] | 4680 nM | 72% | 117 nM | > 320 nM | 90 to 100% | 17.1 µg/mL (≈ 36.4 µM) |  |  | 
COCCNS(=O)(=O)N1CCc2c(n(C)c3c(=O)n(Cc4ccc(OC)nc4)ncc23)C1 [Example 28, N-(2-methoxyethyl)-3-((6-methoxypyridin-3-yl)methyl)-5-methyl-4-oxo-3,4,5,6,8,9-hexahydro-7H-pyrido[4′,3′:4,5]pyrrolo[2,3-d]pyridazine-7-sulfonamide] | 385 nM | 56.4% |  |  |  | > 92.5 µg/mL |  |  | 
COCCS(=O)(=O)N1CCc2c(n(C)c3c(=O)n(Cc4c[nH]c5cnccc45)ncc23)C1 [Example 29, 3-((1H-pyrrolo[2,3-c]pyridin-3-yl)methyl)-7-((2-methoxyethyl)sulfonyl)-5-methyl-6,7,8,9-tetrahydro-3H-pyrido[4′,3′:4,5]pyrrolo[2,3-d]pyridazin-4(5H)-one] | 280 nM | 89% |  |  |  |  |  |  | 37.5 µg/mL (≈ 82 µM)
